Values after ≈ are worked out from the molar mass of the structure shown. Where two headings read alike, the source gives them in different places.
Experiments:
[1] = test system: Escherichia coli; parameters: method as in PMID 31405863, PMID 15730262; details: natural PMs; cited from earlier work
[2] = test system: Pseudomonas aeruginosa ATCC 10145; test: Kill curve assay (MBC), planktonic cells; format: cell-based; details: for MBC: Pseudomonas aeruginosa, ATCC10145, minimal bactericidal concentration, planktonic cells, 24 h challenge, LB medium, read-out: MBC P. aeruginosa; for B-SI (Bacterial Selectivity Index), P. aeruginosa: ratio of IC50 of normal hTERT-RPE-1 to MBC of P. aeruginosa, first value of the cell; for log reduction in the number of viable CFUs, P. aeruginosa: highest concentration tested 100 μM, 24 h
Procedure: (§1) Kill curve assays were performed to test the antimicrobial efficacy of pyrrolomycins (i.e., 1, 2, 5a, 5b, 5c, 5d), as well as that of the natural PM-C against the indicator pathogen Staphylococcus aureus ATCC 25923 and Pseudomonas aeruginosa ATCC 10145 strains. Briefly, a single colony of either S. aureus or P. aeruginosa strains was picked up and pre-cultivated (ca. 16 h) at 37 °C with shacking (160 rpm) in Luria Bertani medium (hereinafter named as LB and composed of (g L^−1): sodium chloride, 10; yeast extract, 5; tryptone, 10). The same medium was solidified by adding 15 g L^−1 of bacteriological agar when needed. Bacterial cells were then inoculated (1% v/v) in LB medium amended with increasing concentrations—ranging from 0 to 100 μM as initial concentration—of each pyrrolomycin tested, challenging the cultures for 24 h and incubating them as reported above. The actual number of viable colony forming units per milliliter of culture (CFU mL^−1) of each bacterial strain, who survived the challenge exerted by pyrrolomycins, was evaluated through the spot plate count method and compared to unchallenged cultures, as reported elsewhere. The data are reported as average values (n = 3) of CFU mL^−1 in the logarithmic (Log10) scale with standard deviation (SD). Evaluation of the MIC of PM-5c, and -5d against S. aureus and of PM-5d against P. aeruginosa was performed by incubating 1% (v/v) of an overnight bacterial suspension in LB medium in presence of increasing concentrations of the PMs. As a control, MIC of PM-C was measured. At the time of the inoculum and after overnight challenge, the absorbance of the cultures at 600 nm, which is an indirect way to measure the bacterial cell growth, was registered using a Spark™ 10 M multimode microplate reader measuring. The experiment was carried out in triplicate, being the absorbance corrected by subtracting that of the culture medium amended with the corresponding PM tested.

[3] = test system: Staphylococcus aureus ATCC 25923; test: Kill curve assay (MBC), planktonic cells; format: cell-based; details: for MBC: minimal bactericidal concentration, planktonic cells, 24 h challenge, LB medium, read-out: MBC S. aureus; for B-SI (Bacterial Selectivity Index), S. aureus: ratio of IC50 of normal hTERT-RPE-1 to MBC of S. aureus, second value of the cell
Procedure: as §1

[4] = test system: HCT116 colon cancer cell line; test: MTT viability assay; format: cell-based; details: for IC50: MTT, 48 h of treatment; for C-SI (Cancer Selectivity Index), HCT116: ratio of IC50 of normal hTERT-RPE-1 to that of HCT116, first value of the cell
Procedure: (§2) The HCT116 colon cancer cell line (ATCC® CCL-247™), the MCF 7 breast cancer cell line (ATCC® HTB-22™) and the hTERT RPE-1 -immortalized retinal pigment epithelial cell line (ATCC® CRL-4000™) used in this study were cultured in DMEM medium (Gibco, Paisley, UK), supplemented with 1% glutamine, 10% heat-inactivated fetal bovine serum and 100U/mL penicillin and 100 μg/mL streptomycin, as already described, and maintained at 37 °C and 5% CO2.
(§3) Cells were plated at 5 × 10^3 cells/well in 96-well plates and incubated for 24 h prior to treatment for further 48 h of different concentrations of PMs. After incubation, a sample of 20 μL of Thiazolyl Blue Tetrazolium Bromide (5 mg mL^−1) in PBS was added to each well and cultured for 2h at 37 °C in CO2 incubator. After removing the medium containing MTT and three washes with PBS, 100 μL of warm DMSO was added to each well to dissolve formazan. Samples were shaken for 10 min, at room temperature in the dark, and the absorbance was recorded at 570 nm using a microplate reader (Spark® 20M Tecan Trading AG, Switzerland). Percentage of cell viability with respect to untreated control cells (vehicle control) was calculated after subtraction of the blank. The IC50 values, that is the concentration necessary to inhibit the 50% of cell growth, was calculated using a dose-response model, obtained from sigmoidal fitting of response curves of percent inhibition versus logarithmic concentration of PMs, using Graph Pad Prism software. Each result represents the mean value of three different experiments performed in triplicate.

[5] = test system: MCF 7 breast cancer cell line; test: MTT viability assay; format: cell-based; details: for IC50: MTT, 48 h of treatment; for C-SI (Cancer Selectivity Index), MCF 7: ratio of IC50 of normal hTERT-RPE-1 to that of MCF 7, second value of the cell
Procedure: as §2, §3

[6] = test system: hTERT RPE-1 immortalized retinal pigment epithelial cell line; test: MTT viability assay (cytotoxicity on normal cells); format: cell-based; details: hTERT-RPE1; MTT, 48 h of treatment, normal epithelial cells; read-out: IC50 hTERT-RPE-1
Procedure: as §2, §3

[7] = test system: HCT116 and MCF 7 cancer cell lines; test: MTT viability assay, statements over both cancer cell lines; format: cell-based; details: for IC50: MTT, 48 h challenge, group statement, read-out: IC50, regardless of the cancer cell line (HCT116, MCF 7); for C-SI, mean value among the two cancer cell lines: mean of HCT116 and MCF 7 C-SI
Procedure: as §2, §3

[8] = test system: P. aeruginosa; test: MIC by absorbance at 600 nm after overnight challenge; format: cell-based; details: Pseudomonas aeruginosa, LB medium, absorbance 600 nm
Procedure: as §1

[9] = test system: S. aureus; test: as above; format: cell-based; details: Staphylococcus aureus, LB medium, absorbance 600 nm
Procedure: as §1

[10] = test system: P. aeruginosa cells; test: AO/EB double staining of bacterial cells; format: cell-based, Pseudomonas aeruginosa; details: 10 μM (sub-inhibitory), 24 h
Procedure: It is noteworthy to highlight that the main difference between PM-C and 5d relies only on the presence of the nitro group in the position R3 of the latter, which is likely responsible for its enhanced electronegativity and, therefore, better biological reactivity over PM-C.
Figure 3 Fluorescence micrographs of P. aeruginosa cells treated for 24 h with 100 μM of PM-C or 10 μM of PM 5d after AO/EB double staining. Control represents untreated cells. Green (AO) are viable cells, red (EB) dead cells, and orange vital cells with damaged membranes.

[11] = test system: HCT116 cells; test: Morphological assessment, phase contrast inverted microscope; format: cell-based; details: 0.1 µM (sub-inhibitory), 24 h
Procedure: HCT116 cells were seeded in 24 well culture plates with a cell density of 1 × 10^5 cells/well. After 24 h cells were incubated for 24 h with different concentration of the selected PMs, and observed under a phase contrast inverted microscope (Carl Zeiss) at 200× magnification, for morphological changes assessment.

[12] = test system: HCT116 cells; test: Acridine orange/ethidium bromide (AO/EB) staining; format: cell-based; details: for AO/EB fluorescence of treated HCT116 cells (type of cell death): treated at IC50 for 24 and 48 h
Description: Cells were immediately observed under a fluorescent microscopy (Carl Zeiss) at 630 × magnification.

[13] = Staphylococcus aureus, ATCC25923

IC50 ([4]; Homo sapiens, HCT-116, 48 h) [µM]	IC50 ([5]; Homo sapiens, MCF7, 48 h) [µM]	IC50 [5] [µM]	IC50 [7] [µM]	melting point [°C]	Compound	MIC against Escherichia coli [1]	MBC [2] [µM]	B-SI (Bacterial Selectivity Index), P. aeruginosa [2]	MBC [3, 13] [µM]	B-SI (Bacterial Selectivity Index), S. aureus [3]	IC50 [4] [µM]	C-SI (Cancer Selectivity Index), HCT116 [4]	C-SI (Cancer Selectivity Index), MCF 7 [5]	IC50 [6] [µM]	C-SI, mean value among the two cancer cell lines [7]	morphology of treated HCT116 cells [11]	AO/EB fluorescence of treated HCT116 cells (type of cell death) [12]	log reduction in the number of viable CFUs, P. aeruginosa [2] [log]	MBC [3] [µM]	further results
					COc1c(Cl)cc(Cl)cc1C(=O)c1cc(Cl)c(Cl)[nH]1 [PM-I]	more than 300 μM														
11.1 ± 3.26	17.2 ± 3.2	17.2 ± 3.2	> 7	179 to 180	COc1c(Br)cc(Br)cc1C(=O)c1c(Br)c(Br)c(Br)n1C [PM 2, (3,5-Dibromo-2-methoxyphenyl)(3,4,5-tribromo-1-methyl-1H-pyrrol-2-yl)methanone]		> 100	> 1.5	70 (≈ 42.7 µg/mL)	2.1	11.1 ± 3.3	13.4	8.6	149 ± 41	11					
					COc1c(Cl)cc(Cl)cc1[C@H](O)c1[nH]c(Cl)c(Cl)c1[N+](=O)[O-] [PM-H]	more than 300 μM														
					O=[N+]([O-])c1c([C@@H](O)c2cc(Cl)cc(Cl)c2O)[nH]c(Cl)c1Cl [PM-G]	more than 300 μM														
18.7 ± 3.81	28.8 ± 4.21	28.8 ± 4.2	> 7	180 to 182	O=C(c1cc(Cl)c([N+](=O)[O-])[nH]1)c1cc(Cl)cc(Cl)c1O [PM 5b, (4-Chloro-5-nitro-1H-pyrrol-2-yl)(3,5-dichloro-2-hydroxyphenyl)methanone]		> 100	> 0.6	20 (≈ 6.71 µg/mL)	2.8	18.7 ± 3.8	3	1.9	55.4 ± 13.2	2.5			2.7	20 (≈ 6.71 µg/mL)	
1.9 ± 0.42	2.25 ± 0.35	2.2 ± 0.3	0.8 to 2.25		O=C(c1cc([N+](=O)[O-])c[nH]1)c1cc(Cl)cc(Cl)c1O [PM 5a, (3,5-Dichloro-2-hydroxyphenyl)(4-nitro-1H-pyrrol-2-yl)methanone]		> 100	> 0.7	60 (≈ 18.1 µg/mL)	1.1		34.6	29.2	65.8 ± 10.5	32	more fibroblastic and less clumped morphology	orange fluorescence		60 (≈ 18.1 µg/mL)	
					COc1c(Cl)cc(Cl)cc1C(=O)c1[nH]c(Cl)c(Cl)c1Cl [PM-J]	more than 300 μM														
1.3 ± 0.3	1.22 ± 0.69	1.2 ± 0.7	0.8 to 2.25		O=C(c1cc(Br)cc(Br)c1O)c1[nH]c(Br)c(Br)c1Br [PM 1, 3,4,5,3′,5′-Pentabromo-2-(2′-hydroxybenzoyl)pyrrole, reference compound]		> 100	> 0.6	5 (≈ 2.91 µg/mL)	11.5		44.2	47.3	57.7 ± 11.2	46	more fibroblastic and less clumped morphology	red fluorescence	2.2		

Compound	IC50 ([4]; Homo sapiens, HCT-116, 48 h) [µM]	IC50 ([5]; Homo sapiens, MCF7, 48 h) [µM]	IC50 [5] [µM]	IC50 [7] [µM]	melting point [°C]	MIC against Escherichia coli [1]	MBC [2] [µM]	B-SI (Bacterial Selectivity Index), P. aeruginosa [2]	MBC [3, 13] [µM]	B-SI (Bacterial Selectivity Index), S. aureus [3]	IC50 [4] [µM]	C-SI (Cancer Selectivity Index), HCT116 [4]	C-SI (Cancer Selectivity Index), MCF 7 [5]	IC50 [6] [µM]	C-SI, mean value among the two cancer cell lines [7]	morphology of treated HCT116 cells [11]	AO/EB fluorescence of treated HCT116 cells (type of cell death) [12]	log reduction in the number of viable CFUs, P. aeruginosa [2] [log]	MBC [3] [µM]	further results
O=C(c1cc(Cl)cc(Cl)c1O)c1[nH]c(Cl)c(Cl)c1[N+](=O)[O-] [PM 5d, (3,5-Dichloro-2-hydroxyphenyl)(4,5-dichloro-3-nitro-1H-pyrrol-2-yl)methanone]	1.56	1.57 ± 0.39	1.6 ± 0.4	0.8 to 2.25			30 (≈ 11.1 µg/mL)	7.5	7.5 (≈ 2.77 µg/mL)	30	1.6 ± 0.2	143.3	143.4	225 ± 22.7	143	more fibroblastic and less clumped morphology	orange fluorescence			MIC [8]: > 20 µM; MIC [9]: 2 µM (≈ 0.74 µg/mL); AO/EB staining colour of P. aeruginosa cells [10]: either orange (indicating that cell membranes were damaged due to the entrance of EB) or red (indicating not viable cells); late apoptosis by AO/EB staining, HCT116 ([12]; treated at IC50, after 48 h): reddish orange cells
O=C(c1cc(Br)c([N+](=O)[O-])[nH]1)c1cc(Cl)cc(Cl)c1O [PM 5c, (4-Bromo-5-nitro-1H-pyrrol-2-yl)(3,5-dichloro-2-hydroxyphenyl)methanone]	7.64 ± 1.88	12 ± 2.85	12 ± 2.8	> 7	175 to 177		> 100	> 0.3	1 (≈ 0.38 µg/mL)	29.7	7.6 ± 1.9			29.7 ± 5.7	8			2.2	1 (≈ 0.38 µg/mL)	fold more active than the synthetic PM-1 (S. aureus) ([3]; fold versus PM-1): 5; times more active than PM-C (S. aureus MBC) ([3]; fold versus PM-C): 90; times less toxic than PM-C (bacterial SI) ([3]; from bacterial selectivity index, S. aureus): 30; MIC [9]: 0.5 µM (≈ 0.19 µg/mL)

From publication PMC7345095, “New Synthetic Nitro-Pyrrolomycins as Promising Antibacterial and Anticancer Agents” (Antibiotics, 2020)
